Measurements from patent US6034230A, “Nucleic acids encoding myocardial peptides” (priority 1999, dated 2000).

Tested on: Balb/c mice
Assay: Oligodeoxynucleotides as immunostimulators: immunization with M7A-alpha peptide plus oligodeoxynucleotide, inflammatory heart disease at day 21
Format: in vivo
Settings: for Severity of inflammatory heart disease (score) / Prevalence of inflammatory heart disease: Table 2, day 21; for Severity of inflammatory heart disease (score): about 10 nmol oligodeoxynucleotide + about 50 micrograms M7A-alpha, score scale of Example 1; for Immunostimulatory / adjuvant activity: with M7A-alpha peptide, in the absence of Freund's complete adjuvant
[1] = about 10 nmol oligodeoxynucleotide as adjuvant + about 50 micrograms M7A-alpha, Freund's incomplete adjuvant, days 0 and 7

Row | Sequence | Severity of inflammatory heart disease (score) (Freund's incomplete adjuvant) | Prevalence of inflammatory heart disease [1] | Prevalence of inflammatory heart disease (negative control: about 10 nmol oligodeoxynucleotide without peptide) | Immunostimulatory / adjuvant activity
1 | GTACTGACGTTTACTCTTGG (chemistry not given here) [CpG, oligonucleotide from DNA encoding 60 kDa cysteine rich outer membrane protein of Chlamydia trachomatis, containing a CpG motif] | 1.2 ± 0.4 | 5/5 | 0/5 | potent immunostimulator
2 | GTACTGAGCTTTACTCTTGG (chemistry not given here) [non-CpG, counterpart of the CpG oligo not containing the CpG motif, reference compound] | 1.0 ± 0.0 | 1/5 | – | hardly effective as an adjuvant
